Test results published in patent US9511058B2, “Methods for using carboxamide, sulfonamide and amine compounds” (Rigel Pharmaceuticals, Inc., priority 2010, dated 2016).

Molecular target: AMPK
Test: AMPK activation, enzyme-linked immunosorbent assay
Assay type: biochemical

| SMILES | EC50 (compounds of Table 1 (Table 6)) [µM] | EC50 (compounds of Table 2 (Table 7)) [µM] |
| --- | --- | --- |
| O=C(NC1CCN(Cc2ccncc2)CC1)c1cc2cc(OC3CCN(c4ccc(C(F)(F)F)cc4)CC3)ccc2s1 [1-138, N-(1-(pyridin-4-ylmethyl)piperidin-4-yl)-5-(1-(4-(trifluoromethyl)phenyl)piperidin-4-yloxy)benzo[b]thiophene-2-carboxamide] | < 0.1 |  |
| CC(C)(C)OC(=O)N1CCC(NC(=O)c2cc3ccc(OC4CCN(c5ccc(C(F)(F)F)cc5)CC4)cc3s2)CC1 [1-140, tert-butyl 4-(6-(1-(4-(trifluoromethyl)phenyl)piperidin-4-yloxy)benzo[b]thiophene-2-carboxamido)piperidine-1-carboxylate] | 0.5 to 1 |  |
| O=C(NC1CCNCC1)c1cc2ccc(OC3CCN(c4ccc(C(F)(F)F)cc4)CC3)cc2s1 [1-141, N-(piperidin-4-yl)-6-(1-(4-(trifluoromethyl)phenyl)piperidin-4-yloxy)benzo[b]thiophene-2-carboxamide] | 0.1 to 0.5 |  |
| N#Cc1ccc(CN2CCC(NC(=O)c3cc4ccc(OC5CCN(c6ccc(C(F)(F)F)cc6)CC5)cc4s3)CC2)cc1 [1-144, N-(1-(4-cyanobenzyl)piperidin-4-yl)-6-(1-(4-(trifluoromethyl)phenyl)piperidin-4-yloxy)benzo[b]thiophene-2-carboxamide] | < 0.1 |  |
| N#Cc1cccc(CN2CCC(NC(=O)c3cc4ccc(OC5CCN(c6ccc(C(F)(F)F)cc6)CC5)cc4s3)CC2)c1 [1-145, N-(1-(3-cyanobenzyl)piperidin-4-yl)-6-(1-(4-(trifluoromethyl)phenyl)piperidin-4-yloxy)benzo[b]thiophene-2-carboxamide] | 0.1 to 0.5 |  |
| N#Cc1ccccc1CN1CCC(NC(=O)c2cc3ccc(OC4CCN(c5ccc(C(F)(F)F)cc5)CC4)cc3s2)CC1 [1-146, N-(1-(2-cyanobenzyl)piperidin-4-yl)-6-(1-(4-(trifluoromethyl)phenyl)piperidin-4-yloxy)benzo[b]thiophene-2-carboxamide] | 0.1 to 0.5 |  |
| CC(C)(C)OC(=O)N1CCC(NC(=O)c2sc3cc(OC4CCN(c5ccc(C(F)(F)F)cc5)CC4)ccc3c2Cl)CC1 [1-147, tert-butyl 4-(3-chloro-6-(1-(4-(trifluoromethyl)phenyl)piperidin-4-yloxy)benzo[b]thiophene-2-carboxamido)piperidine-1-carboxylate] | 1 to 5 |  |
| O=C(NC1CCNCC1)c1sc2cc(OC3CCN(c4ccc(C(F)(F)F)cc4)CC3)ccc2c1Cl [1-148, 3-chloro-N-(piperidin-4-yl)-6-(1-(4-(trifluoromethyl)phenyl)piperidin-4-yloxy)benzo[b]thiophene-2-carboxamide] | > 10 |  |
| CC(C)(C)OC(=O)N1CCC(NC(=O)c2cc3cc(OC4CCN(c5ccc(C(F)(F)F)cc5)CC4)ccc3s2)CC1 [1-149, tert-butyl 4-(5-(1-(4-(trifluoromethyl)phenyl)piperidin-4-yloxy)benzo[b]thiophene-2-carboxamido)piperidine-1-carboxylate] | < 0.1 |  |
| O=C(NC1CCNCC1)c1cc2cc(OC3CCN(c4ccc(C(F)(F)F)cc4)CC3)ccc2s1 [1-150, N-(piperidin-4-yl)-5-(1-(4-(trifluoromethyl)phenyl)piperidin-4-yloxy)benzo[b]thiophene-2-carboxamide] | 1 to 5 |  |
| O=C(NC1CCN(Cc2ccncc2)CC1)c1sc2cc(OC3CCN(c4ccc(C(F)(F)F)cc4)CC3)ccc2c1Cl [1-151, 3-chloro-N-(1-(pyridin-4-ylmethyl)piperidin-4-yl)-6-(1-(4-(trifluoromethyl)phenyl)piperidin-4-yloxy)benzo[b]thiophene-2-carboxamide] | < 0.1 |  |
| O=C(NC1CCN(Cc2cccnc2)CC1)c1sc2cc(OC3CCN(c4ccc(C(F)(F)F)cc4)CC3)ccc2c1Cl [1-152, 3-chloro-N-(1-(pyridin-3-ylmethyl)piperidin-4-yl)-6-(1-(4-(trifluoromethyl)phenyl)piperidin-4-yloxy)benzo[b]thiophene-2-carboxamide] | < 0.1 |  |
| O=C(NC1CCN(Cc2ccccn2)CC1)c1sc2cc(OC3CCN(c4ccc(C(F)(F)F)cc4)CC3)ccc2c1Cl [1-153, 3-chloro-N-(1-(pyridin-2-ylmethyl)piperidin-4-yl)-6-(1-(4-(trifluoromethyl)phenyl)piperidin-4-yloxy)benzo[b]thiophene-2-carboxamide] | 0.1 to 0.5 |  |
| CC(C)(C)OC(=O)N1CCC(NC(=O)c2ccc3[nH]c4c(c3c2)CN(C(=O)OCc2ccccc2)CC4)CC1 [2-3, benzyl 8-(1-(tert-butoxycarbonyl)piperidin-4-ylcarbamoyl)-3,4-dihydro-1H-pyrido[4,3-b]indole-2(5H)-carboxylate] |  | 10 to 50 |

Other lines, results leading:

| EC50 (compounds of Table 1 (Table 6)) [µM] | EC50 (compounds of Table 2 (Table 7)) [µM] | SMILES |
| --- | --- | --- |
| < 0.1 |  | N#Cc1ccc(CN2CCC(NC(=O)c3sc4cc(OC5CCN(c6ccc(C(F)(F)F)cc6)CC5)ccc4c3Cl)CC2)cc1 [1-154, 3-chloro-N-(1-(4-cyanobenzyl)piperidin-4-yl)-6-(1-(4-(trifluoromethyl)phenyl)piperidin-4-yloxy)benzo[b]thiophene-2-carboxamide] |
| 0.1 to 0.5 |  | CC(C)(C)OC(=O)N1CCC(NC2CCc3cc(OC4CCN(c5ccc(C(F)(F)F)cc5)CC4)ccc32)CC1 (centres unmarked) [1-156, tert-butyl 4-(5-(1-(4-(trifluoromethyl)phenyl)piperidin-4-yloxy)-2,3-dihydro-1H-inden-1-ylamino)piperidine-1-carboxylate] |
| 1 to 5 |  | FC(F)(F)c1ccc(N2CCC(Oc3ccc4c(c3)CCC4NC3CCNCC3)CC2)cc1 (centres unmarked) [1-157, N-(5-(1-(4-(trifluoromethyl)phenyl)piperidin-4-yloxy)-2,3-dihydro-1H-inden-1-yl)piperidin-4-amine] |
| 0.1 to 0.5 |  | FC(F)(F)c1ccc(N2CCC(Oc3ccc4c(c3)CCC4NC3CCN(Cc4ccncc4)CC3)CC2)cc1 (centres unmarked) [1-158, 1-(pyridin-4-ylmethyl)-N-(5-(1-(4-(trifluoromethyl)phenyl)piperidin-4-yloxy)-2,3-dihydro-1H-inden-1-yl)piperidin-4-amine] |
| 0.1 to 0.5 |  | Fc1ccc(CN2CCC(NC3CCc4cc(OC5CCN(c6ccc(C(F)(F)F)cc6)CC5)ccc43)CC2)cc1 (centres unmarked) [1-159, 1-(4-fluorobenzyl)-N-(5-(1-(4-(trifluoromethyl)phenyl)piperidin-4-yloxy)-2,3-dihydro-1H-inden-1-yl)piperidin-4-amine] |
| < 0.1 |  | N#Cc1ccc(CN2CCC(NC3CCc4cc(OC5CCN(c6ccc(C(F)(F)F)cc6)CC5)ccc43)CC2)cc1 (centres unmarked) [1-160, 4-((4-(5-(1-(4-(trifluoromethyl)phenyl)piperidin-4-yloxy)-2,3-dihydro-1H-inden-1-ylamino)piperidin-1-yl)methyl)benzonitrile] |
|  | 1 to 5 | N#Cc1ccc(CN2CCC(NC(=O)c3ccc4[nH]c5c(c4c3)CN(C(=O)OCc3ccccc3)CC5)CC2)cc1 [2-1, benzyl 8-(1-(4-cyanobenzyl)piperidin-4-ylcarbamoyl)-3,4-dihydro-1H-pyrido[4,3-b]indole-2(5H)-carboxylate] |
|  | 10 to 50 | O=C(NC1CCN(Cc2ccccc2)CC1)c1ccc2[nH]c3c(c2c1)CN(C(=O)OCc1ccccc1)CC3 [2-2, benzyl 8-(1-(4-benzyl)piperidin-4-ylcarbamoyl)-3,4-dihydro-1H-pyrido[4,3-b]indole-2(5H)-carboxylate] |
|  | 1 to 5 | N#Cc1ccc(CN2CCC(NC(=O)c3ccc4[nH]c5c(c4c3)CN(Cc3ccccc3)CC5)CC2)cc1 [2-4, 2-benzyl-N-(1-(4-cyanobenzyl)piperidin-4-yl)-2,3,4,5-tetrahydro-1H-pyrido[4,3-b]indole-8-carboxamide] |
